Assay: xn = mol fraction of the nth substance listed
Conditions: 101 kPa, Liquid

CCn1cc[n+](C)c1.O=S(=O)([O-])C(F)(F)F [1-ethyl-3-methylimidazolium trifluoromethanesulfonate] + COC(C)=O
Conditions | mass density, 278.15 K [kg/m3] | mass density, 288.15 K [kg/m3] | mass density, 298.15 K [kg/m3] | mass density, 308.15 K [kg/m3] | mass density, 318.15 K [kg/m3] | speed of sound, 278.15 K [m/s] | speed of sound, 288.15 K [m/s] | speed of sound, 298.15 K [m/s] | speed of sound, 308.15 K [m/s] | speed of sound, 318.15 K [m/s]
x1 = 0.0502 | 1010.1 | 997.8 | 985.37 | 972.78 | 960.03 | 1259.8 | 1215.5 | 1171.7 | 1128.2 | 1084.8
x1 = 0.1006 | 1058.3 | 1046.52 | 1034.65 | 1022.69 | 1010.6 | 1278.4 | 1236.5 | 1195.1 | 1153.8 | 1112.8
x1 = 0.1501 | 1099.41 | 1088.09 | 1076.72 | 1065.29 | 1053.78 | 1298.1 | 1258.5 | 1219.4 | 1180.5 | 1141.9
x1 = 0.2001 | 1135.42 | 1124.48 | 1113.53 | 1102.55 | 1091.53 | 1316.6 | 1279.2 | 1242.4 | 1205.9 | 1169.7
x1 = 0.3003 | 1196.62 | 1186.31 | 1176.03 | 1165.76 | 1155.5 | 1350.2 | 1316.6 | 1283.5 | 1250.8 | 1218.7
x1 = 0.3999 | 1243.17 | 1233.3 | 1223.49 | 1213.71 | 1203.97 | 1376.9 | 1346 | 1315.8 | 1285.9 | 1256.7
x1 = 0.4997 | 1281.71 | 1272.18 | 1262.72 | 1253.32 | 1243.97 | 1400 | 1371.2 | 1343 | 1315.5 | 1288.5
x1 = 0.6 | 1313.96 | 1304.71 | 1295.53 | 1286.43 | 1277.38 | 1420.4 | 1393.3 | 1366.8 | 1340.9 | 1315.6
x1 = 0.7 | 1341.07 | 1332.05 | 1323.1 | 1314.23 | 1305.42 | 1438.5 | 1412.7 | 1387.6 | 1362.9 | 1338.9
x1 = 0.7986 | 1363.97 | 1355.14 | 1346.39 | 1337.7 | 1329.08 | 1454.4 | 1429.7 | 1405.6 | 1382 | 1358.9
x1 = 0.8509 | 1374.9 | 1366.17 | 1357.51 | 1348.91 | 1340.38 | 1462.2 | 1438 | 1414.4 | 1391.2 | 1368.6
x1 = 0.9008 | 1384.25 | 1375.61 | 1367.03 | 1358.51 | 1350.04 | 1469.1 | 1445.3 | 1422 | 1399.2 | 1377
x1 = 0.9504 | 1393.09 | 1384.52 | 1376.02 | 1367.58 | 1359.19 | 1475.6 | 1452 | 1429.1 | 1406.7 | 1384.8

CCn1cc[n+](C)c1.O=S(=O)([O-])C(F)(F)F [1-ethyl-3-methylimidazolium trifluoromethanesulfonate] + CC(C)=O
Conditions | mass density, 278.15 K [kg/m3] | mass density, 288.15 K [kg/m3] | mass density, 298.15 K [kg/m3] | mass density, 308.15 K [kg/m3] | mass density, 318.15 K [kg/m3] | speed of sound, 278.15 K [m/s] | speed of sound, 288.15 K [m/s] | speed of sound, 298.15 K [m/s] | speed of sound, 308.15 K [m/s] | speed of sound, 318.15 K [m/s]
x1 = 0.05 | 887.53 | 876.86 | 866.08 | 855.21 | 844.23 | 1280.3 | 1233.3 | 1191.1 | 1149.9 | 1109.3
x1 = 0.0999 | 953.96 | 943.44 | 932.87 | 922.28 | 911.64 | 1299.7 | 1253.5 | 1214.3 | 1176 | 1138.2
x1 = 0.1501 | 1010.97 | 1000.75 | 990.52 | 980.27 | 969.97 | 1313.5 | 1273.1 | 1236.6 | 1200.8 | 1165.4
x1 = 0.2004 | 1060.17 | 1050.21 | 1040.29 | 1030.37 | 1020.44 | 1327.8 | 1291.8 | 1257.5 | 1223.7 | 1190.4
x1 = 0.2988 | 1138.02 | 1128.31 | 1118.66 | 1109.04 | 1099.45 | 1356.4 | 1324.7 | 1293.5 | 1262.9 | 1232.8
x1 = 0.4007 | 1201.1 | 1191.78 | 1182.49 | 1173.23 | 1164.02 | 1382.4 | 1353 | 1324.3 | 1296.1 | 1268.4
x1 = 0.5006 | 1250.85 | 1241.69 | 1232.59 | 1223.54 | 1214.55 | 1404.5 | 1376.7 | 1349.7 | 1323 | 1297.1
x1 = 0.6007 | 1291.81 | 1282.81 | 1273.89 | 1265.02 | 1256.22 | 1423.5 | 1397.2 | 1371.6 | 1346.5 | 1322
x1 = 0.7014 | 1326.9 | 1318.05 | 1309.28 | 1300.58 | 1291.94 | 1441 | 1415.8 | 1391.3 | 1367.3 | 1343.8
x1 = 0.7998 | 1354.5 | 1345.77 | 1337.12 | 1328.53 | 1320.01 | 1455.6 | 1430.9 | 1407 | 1383.7 | 1361
x1 = 0.8435 | 1365.96 | 1357.29 | 1348.69 | 1340.15 | 1331.68 | 1462.5 | 1437.8 | 1414.3 | 1391.2 | 1368.7
x1 = 0.9006 | 1379.4 | 1370.81 | 1362.28 | 1353.81 | 1345.41 | 1469.4 | 1445.7 | 1422.5 | 1399.9 | 1377.7
x1 = 0.9489 | – | – | – | – | 1356.74 | – | – | – | – | 1384.7
x1 = 0.9501 | 1390.54 | 1382 | 1373.52 | 1365.09 | – | 1475.9 | 1452.1 | 1429.1 | 1406.7 | –

CCn1cc[n+](C)c1.O=S(=O)([O-])C(F)(F)F [1-ethyl-3-methylimidazolium trifluoromethanesulfonate] + CCOC(C)=O
Conditions | mass density [kg/m3] | speed of sound [m/s]
278.15 K, x1 = 0.0501 | 967.32 | 1238
278.15 K, x1 = 0.1003 | 1011.38 | 1249
278.15 K, x1 = 0.1502 | 1051.15 | 1263.8
278.15 K, x1 = 0.2004 | 1087.57 | 1280.5
278.15 K, x1 = 0.3002 | 1150.92 | 1313.9
278.15 K, x1 = 0.4002 | 1203.84 | 1343.7
278.15 K, x1 = 0.5002 | 1248.95 | 1371.2
278.15 K, x1 = 0.6009 | 1288.17 | 1397
278.15 K, x1 = 0.6999 | 1321.89 | 1420.5
278.15 K, x1 = 0.8006 | 1351.91 | 1442.8
278.15 K, x1 = 0.8492 | 1365.02 | 1453
278.15 K, x1 = 0.9008 | 1378.11 | 1463.2
278.15 K, x1 = 0.9501 | 1389.89 | 1472.6
288.15 K, x1 = 0.0501 | 955.66 | 1193.7
288.15 K, x1 = 0.1003 | 999.99 | 1206.1
288.15 K, x1 = 0.1502 | 1040.09 | 1222.8
288.15 K, x1 = 0.2004 | 1076.84 | 1241.5
288.15 K, x1 = 0.3002 | 1140.7 | 1278.8
288.15 K, x1 = 0.4002 | 1194.03 | 1311.7
288.15 K, x1 = 0.5002 | 1239.47 | 1341.6
288.15 K, x1 = 0.6009 | 1278.96 | 1369.4
288.15 K, x1 = 0.6999 | 1312.9 | 1394
288.15 K, x1 = 0.8006 | 1343.1 | 1417.9
288.15 K, x1 = 0.8492 | 1356.29 | 1428.6
288.15 K, x1 = 0.9008 | 1369.47 | 1439.3
288.15 K, x1 = 0.9501 | 1381.32 | 1449
298.15 K, x1 = 0.0501 | 943.87 | 1150
298.15 K, x1 = 0.1003 | 988.52 | 1163.9
298.15 K, x1 = 0.1502 | 1028.97 | 1182.5
298.15 K, x1 = 0.2004 | 1066.05 | 1203
298.15 K, x1 = 0.3002 | 1130.49 | 1244.2
298.15 K, x1 = 0.4002 | 1184.26 | 1280.4
298.15 K, x1 = 0.5002 | 1230.04 | 1312.7
298.15 K, x1 = 0.6009 | 1269.8 | 1342.4
298.15 K, x1 = 0.6999 | 1303.96 | 1369
298.15 K, x1 = 0.8006 | 1334.35 | 1393.7
298.15 K, x1 = 0.8492 | 1347.63 | 1404.8
298.15 K, x1 = 0.9008 | 1360.89 | 1416
298.15 K, x1 = 0.9501 | 1372.81 | 1426
308.15 K, x1 = 0.0501 | 931.96 | 1106.8
308.15 K, x1 = 0.1003 | 976.94 | 1121.8
308.15 K, x1 = 0.1502 | 1017.77 | 1142.2
308.15 K, x1 = 0.2004 | 1055.22 | 1165.1
308.15 K, x1 = 0.3002 | 1120.28 | 1210.2
308.15 K, x1 = 0.4002 | 1174.52 | 1249.5
308.15 K, x1 = 0.5002 | 1220.67 | 1284.4
308.15 K, x1 = 0.6009 | 1260.71 | 1316
308.15 K, x1 = 0.6999 | 1295.11 | 1344.2
308.15 K, x1 = 0.8006 | 1325.68 | 1370
308.15 K, x1 = 0.8492 | 1339.04 | 1381.6
308.15 K, x1 = 0.9008 | 1352.38 | 1393.2
308.15 K, x1 = 0.9501 | 1364.37 | 1403.6
318.15 K, x1 = 0.0501 | 919.88 | 1063.9
318.15 K, x1 = 0.1003 | 965.24 | 1080.1
318.15 K, x1 = 0.1502 | 1006.48 | 1102.3
318.15 K, x1 = 0.2004 | 1044.34 | 1127.3
318.15 K, x1 = 0.3002 | 1110.07 | 1176.5
318.15 K, x1 = 0.4002 | 1164.82 | 1219
318.15 K, x1 = 0.5002 | 1211.35 | 1256.6
318.15 K, x1 = 0.6009 | 1251.69 | 1290.1
318.15 K, x1 = 0.6999 | 1286.31 | 1319.8
318.15 K, x1 = 0.8006 | 1317.07 | 1346.8
318.15 K, x1 = 0.8492 | 1330.51 | 1358.8
318.15 K, x1 = 0.9008 | 1343.92 | 1370.8
318.15 K, x1 = 0.9501 | 1355.98 | 1381.6
328.15 K, x1 = 0.0501 | 907.62 | 1021.3
328.15 K, x1 = 0.1003 | 953.35 | 1039.2
328.15 K, x1 = 0.1502 | 995.07 | 1062.7
328.15 K, x1 = 0.2004 | 1033.39 | 1090
328.15 K, x1 = 0.3002 | 1099.87 | 1143.3
328.15 K, x1 = 0.4002 | 1155.15 | 1189.3
328.15 K, x1 = 0.5002 | 1202.08 | 1229.4
328.15 K, x1 = 0.6009 | 1242.72 | 1264.9
328.15 K, x1 = 0.6999 | 1277.58 | 1296
328.15 K, x1 = 0.8006 | 1308.52 | 1324.1
328.15 K, x1 = 0.8492 | 1322.04 | 1336.5
328.15 K, x1 = 0.9008 | 1335.52 | 1348.9
328.15 K, x1 = 0.9501 | 1347.65 | 1360.1
